According to patent publication US20210268056A1, “TAXODIONE FOR ITS USE FOR PROTECTING MUSCLE AND MEAT FROM OXIDATION” (CENTRE NATIONAL DE LA RECHERCHE SCIENTIFIQUE, priority 2018, published 2021):
Entries after “also recorded” stand apart in the source; their conditions may differ.

Assays:
[1] = DPPH free radical scavenging assay; type: biochemical
Procedure: Radical scavenging activity was evaluated using DPPH according to the method described by Morel et al. with some modifications (Morel, Landreau, Nguyen, Derbre, Grellier, Pape, et al., 2012). Tested extracts and standards were diluted in absolute ethanol at different concentrations. Ethanol was used as blank, and 10, 25, 50 and 75 μM Trolox were used as calibration solutions. Tested compounds or standard solutions (100 μL) were placed in 96-well plates in triplicate for each tested concentration. Absolute ethanol was added (75 μL). The reaction was initiated by adding 25 μL of freshly prepared DPPH solution (1 mM) to obtain a final volume of 200 μL/well. After 30 min in the dark at room temperature, absorbance was determined at 550 nm with a UVMAX Molecular Devices microtiter plate reader (MDS Inc., Toronto, Canada). Results were expressed as the effective concentration at which 50% of DPPH radicals were scavenged (EC50 in μg/mL). The results are the mean±standard deviation (SD) of three independent experiments (three wells per concentration for each experiment).

human myoblasts [2] = test: H2O2-induced cell death in human myoblasts (Muse Count and Viability Kit); type: cell-based
Procedure: The quadriceps muscle biopsy was from one healthy adult (AFM-BTR “Banque de tissus pour la recherche”). Myoblasts were purified from the muscle biopsy and were cultured on collagen-coated dishes in DMEM/F12 medium with 10% foetal bovine serum (FBS), 0.1% Ultroser G and 1 ng/ml of human basic fibroblast growth factor (proliferation medium), as previously described (Kitzmann, Bonnieu, Duret, Vernus, Barro, Laoudj-Chenivesse, et al., 2006). For cell differentiation, confluent cells were cultured in DMEM with 4% FBS for 3-5 days (differentiation medium).
Myoblasts: Myoblasts were seeded in 35 mm collagen-coated dishes, cultured in proliferation medium, pre-incubated or not with the tested compounds for 24 h and then incubated or not with a lethal concentration of hydrogen peroxide (H2O2), a strong pro-oxidant/pro-apoptotic compound, for 24 h. […] Dead myoblasts were identified by staining with the Muse® Count and Viability Kit, and ROS was quantified with the Muse® Oxidative Stress Kit, followed by analysis with a Fluorescence Activated Cell Sorting (FACS) Muse apparatus (Millipore, France). […] As myotubes are too big for FACS analysis, H2O2 effect was determined by quantifying lactate dehydrogenase (LDH) activity, which is increased in the culture medium during tissue damage, using the LDH Cytotoxic Kit (ThermoFisher, France). […]

Leishmania = conditions: Naman 2016; Zhang 2012; Machumi 2010; Bufalo 2016; cited from earlier work
fungi = conditions: Kusumoto 2010; Machumi 2010; Bufalo 2016; cited from earlier work
HIV-1 protease = target: T1, HIV-1 protease (Human immunodeficiency virus type 1 group M subtype B, UniProt P04585); conditions: Ahmed 1999; cited from earlier work
T1 construct: HIV-1 protease

acetylcholinesterase = acetylcholinesterase (Homo sapiens, UniProt P22303); conditions: Kuzma 2016; cited from earlier work
Sequence of acetylcholinesterase (P22303 32-614): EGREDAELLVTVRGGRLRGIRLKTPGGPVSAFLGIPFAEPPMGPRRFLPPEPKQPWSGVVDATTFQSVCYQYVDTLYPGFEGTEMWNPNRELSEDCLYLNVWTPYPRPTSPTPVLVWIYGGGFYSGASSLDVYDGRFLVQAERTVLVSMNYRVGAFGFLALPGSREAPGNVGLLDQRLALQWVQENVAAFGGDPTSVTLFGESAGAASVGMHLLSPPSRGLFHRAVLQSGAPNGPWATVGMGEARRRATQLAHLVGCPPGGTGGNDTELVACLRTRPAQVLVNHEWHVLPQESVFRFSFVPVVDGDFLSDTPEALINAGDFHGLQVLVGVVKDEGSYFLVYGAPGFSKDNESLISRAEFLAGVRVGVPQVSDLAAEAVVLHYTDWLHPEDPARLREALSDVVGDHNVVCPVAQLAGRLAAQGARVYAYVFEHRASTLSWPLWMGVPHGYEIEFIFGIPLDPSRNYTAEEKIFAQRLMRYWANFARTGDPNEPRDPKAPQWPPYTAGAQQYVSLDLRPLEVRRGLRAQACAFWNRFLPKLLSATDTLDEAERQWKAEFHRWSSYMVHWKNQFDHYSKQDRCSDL

human myoblasts [3] = test: ROS quantification in myoblasts (Muse Oxidative Stress Kit, FACS); type: cell-based
Procedure: (§1) Myoblasts: Myoblasts were seeded in 35 mm collagen-coated dishes, cultured in proliferation medium, pre-incubated or not with the tested compounds for 24 h and then incubated or not with a lethal concentration of hydrogen peroxide (H2O2), a strong pro-oxidant/pro-apoptotic compound, for 24 h. The optimal H2O2 concentration was the concentration required to kill between 30% and 50% of all cells and was established before each experiment. In general, myoblasts were incubated with 120 μM H2O2. Dead myoblasts were identified by staining with the Muse® Count and Viability Kit, and ROS was quantified with the Muse® Oxidative Stress Kit, followed by analysis with a Fluorescence Activated Cell Sorting (FACS) Muse apparatus (Millipore, France). Myotubes: Myoblasts were seeded in 35 mm collagen-coated dishes, cultured in proliferation medium until confluence, and then switched to differentiation medium for 4 days. At day 2, cells were incubated with TX for 24 h prior to incubation with H2O2 for 24 h. […] As myotubes are too big for FACS analysis, H2O2 effect was determined by quantifying lactate dehydrogenase (LDH) activity, which is increased in the culture medium during tissue damage, using the LDH Cytotoxic Kit (ThermoFisher, France). In parallel, myotube cultures were loaded with a ROS-fluorescent probe (CellRox) followed by fluorescence quantification using a TECAN spectrophotometer.

[4] = test system: MOLT-4, HT-29, and MCF-7 cells; conditions: Mirzaei 2017; cited from earlier work
[5] = Kolak 2009; cited from earlier work
CHOP gene = test: RT-qPCR of CHOP gene expression in myoblasts; type: cell-based, human
Procedure: Myoblasts were seeded in 35 mm collagen-coated dishes, cultured in proliferation medium, pre-incubated or not with TX for 24 h, and then incubated or not with a sub-lethal concentration of H2O2 (80 μM; to avoid interference with dead cells) for 24 h. Then, total RNA was isolated from muscle cells using the NucleoSpin RNA II Kit (Macherey-Nagel, Hoerdt, France). The RNA concentration of each sample was measured with an Eppendorf BioPhotometer. cDNA was prepared using the Verso cDNA Synthesis Kit (Thermo Scientific, Ilkirch, France).
The expression of the CHOP (target) and RPLPO (control) genes was analysed by quantitative polymerase chain reaction (qPCR) on a LightCycler apparatus (Roche Diagnostics, Meylan, France), as previously described (El Haddad, Notarnicola, Evano, El Khatib, Blaquiere, Bonnieu, et al., 2017), using the following primers: […]

γH2AX = test: Western blot of phosphorylated γH2AX in myoblasts; type: cell-based, human
Procedure: Myoblasts were seeded in 35 mm collagen-coated dishes, cultured in proliferation medium, pre-incubated or not with TX for 24 h and then incubated or not with 80 μM H2O2 for 24 h. Protein extracts were separated by SDS-PAGE gel electrophoresis and transferred to nitrocellulose membranes, blocked at room temperature with Odyssey blocking buffer (Eurobio, France) and probed with the rabbit polyclonal anti-Histone H1.4 (Sigma-Aldrich; 1/5000) and rabbit polyclonal anti-gamma H2AX (Cell signalling; 1/3000) antibodies followed by IRDye® 680RD and IRDye® 800RD secondary antibodies (Eurobio, France). Fluorescence was quantified with the Odyssey software. Data were normalized to […] expression.

bacteria = conditions: Machumi 2010; Bufalo 2016; cited from earlier work
Plasmodium = conditions: Zhang 2012; cited from earlier work
protozoa = conditions: Mothana 2014; Kuzma 2017; cited from earlier work
[6] = test system: Walker carcinosarcoma 256; conditions: Kupchan 1968; cited from earlier work
colon cancer cells = conditions: isolated in mixture with [9]-shogaol from Rosmarinus officinalis leaves; Borras Linares 2015; cited from earlier work
human myotubes [7] = test: H2O2 toxicity in myotubes by lactate dehydrogenase (LDH) activity; type: cell-based; conditions: TX 0.5 μg/mL 24 h, then H2O2 (550 μM) 24 h, FIG. 4D
Procedure: as §1

protein phosphatase 2C = conditions: Kusumoto 2014; cited from earlier work
termites = conditions: Kusumoto 2009; cited from earlier work
microbes = conditions: Zhang 2012; Kuzma 2012; cited from earlier work
human myotubes [8] = test: ROS in myotubes (CellRox probe, TECAN); type: cell-based; conditions: TX 0.5 μg/mL 24 h, then H2O2 (550 μM) 24 h, FIG. 4E

CC(C)c1cc2c(c(O)c1O)[C@@]1(C(=O)O)CCCC(C)(C)[C@@H]1CC2 [CA, carnosic acid]
DPPH free radical scavenging activity [1]: strong antioxidant capacities

CC(C)c1cc2c(c(O)c1O)[C@@]13CCCC(C)(C)[C@@H]1C[C@@H]2OC3=O [CO, carnosol]
DPPH free radical scavenging activity [1]: strong antioxidant capacities

CC1(C)CC(O)CC(C)(C)N1[O] [Tempol, reference compound]
protection against H2O2-induced cell death (human myoblasts [2]; pre-incubation 24 h prior to lethal H2O2 (120 μM), Tempol 50 μM, RW all tested concentrations, FIG. 1A): protected human myoblasts efficiently

O=C(/C=C/c1ccc(O)c(O)c1)O[C@H](Cc1ccc(O)c(O)c1)C(=O)O [rosmarinic acid]
DPPH free radical scavenging activity [1]: strong antioxidant capacities

CC(C)C1=CC2=CC(=O)[C@H]3C(C)(C)CCC[C@]3(C)C2=C(O)C1=O [taxodione, (4bS,8aS)-4b,5,6,7,8,8a-hexahydro-4-hydroxy-2-isopropyl-4b,8,8-trimethylphenanthrene-3,9-dione]
anti-leishmanial activity (Leishmania): anti-leishmanial,; also recorded: anti-leishmanial | antifungal activity (fungi): Antifungal effects | DPPH free radical scavenging activity [1]: low | HIV-1 protease inhibitory activity (HIV-1 protease): low HIV-1 protease | acetylcholinesterase inhibition (acetylcholinesterase): inhibition | level of ROS after H2O2 (human myoblasts [3]; TX 0.5 μg/mL 24 h, then H2O2 24 h, FIG. 4A): reduced H2O2 effects | level of ROS, TX alone (human myoblasts [3]; without H2O2): did not have any effect | anti-proliferative activity in MOLT-4, HT-29, and MCF-7 cells [4]: anti-proliferative | activity in O2 assay [5]: not active in O2 assay | level of CHOP mRNA after H2O2 (CHOP gene; TX 0.5 μg/mL 24 h, then 80 μM H2O2 24 h, FIG. 4C): reduced H2O2 effects | level of CHOP mRNA, TX alone (CHOP gene; without H2O2): did not have any effect | level of γH2AX protein after H2O2 (γH2AX; TX 0.5 μg/mL 24 h, then 80 μM H2O2 24 h, FIG. 4B): reduced H2O2 effects | level of γH2AX protein, TX alone (γH2AX; without H2O2): did not have any effect | antibacterial activity (bacteria): antibacterial | antioxidant activity (H2O2-induced cell death) compared with CA and CO (human myoblasts [2]; all tested concentrations, FIG. 3B): significantly more efficient | anti-plasmodial activity (Plasmodium): anti-plasmodial | antiprotozoal activity (protozoa): weak antiprotozoal | inhibitory activity against Walker carcinosarcoma 256 in rats [6]: inhibitory activity | anti-proliferative activity (colon cancer cells): anti-proliferative | LDH activity after H2O2 (human myotubes [7]): significantly reduced H2O2 effects | protein phosphatase 2C inhibitor (protein phosphatase 2C): 2C inhibitor, | Antitermitic activity (antifeedant effect) (termites): Antitermitic activity | antimicrobial activity (microbes): antimicrobial | ROS level (CellRox) after H2O2 (human myotubes [8]): significantly reduced H2O2 effects
